# Source: patent US20190365719A1, “COMBINATION TREATMENTS OF HSP90 INHIBITORS FOR ENHANCING TUMOR IMMUNOGENICITY AND METHODS OF USE THEREOF” (Massachusetts Institute of Technology, priority 2018, published 2019)
# What was measured:
# MC38 tumors = assay: Subcutaneous MC38 tumors in immunocompromised NOD-SCID mice; assay type: in vivo; conditions: 0.5 mg/kg/day in drinking water
# MC38 cells = assay: Flow cytometry of MHC Class I H2-Kb surface expression on MC38 cells; assay type: cell-based, mouse
# Procedure: (§1) For analysis of MHC Class I surface expression, cells were seeded into 12 well plates (125,000/well). 24-hours later, cells were treated with the indicated concentrations of HSP90i (NVP-HSP990) or DMSO vehicle. 72-hours after treatment, cells were dissociated with Accumax (Innovative Cell Technologies) and each treatment condition was distributed into 2 wells of a 96 well plate. […] After incubation with antibody, cells were washed 1× in ice cold PBS+10% FBS prior to analysis on a MACSQuant VYB flow cytometer. Cytometric data were plotted and analyzed with FloJo.
# as §1, with “LSR-2” for “MACSQuant VYB”
# [1] = tested on: SUM159, SKMEL, H838 cells; assay: Flow cytometry of MHC Class I on human tumor cell lines SUM159, SKMEL, H838; assay type: cell-based; conditions: low dose, 72 hours
# Procedure: FIGS. 4A-4F are graphs showing low dose administration of HSP90i stimulates antigen presentation of tumor cells. […] FIG. 4C is a line graph showing relative MC38 cell number following exposure to increasing concentrations of Hsp90i; Live cell number was assessed with a standard metabolic dye-based (Alamar blue) assay and cell mass assessed by protein content using sulphorhodamine-B (SRB) assay. Representative histograms showing flow cytometric measurement of relative MHC Class I expression on the surface of triple-negative breast cancer (SUM159) (FIG. 4D), melanoma (SKMEL) (FIG. 4E), and lung adenocarcinoma (H838) (FIG. 4F) cells treated with DMSO (Veh) or low dose HSP990 for 72 hours.
# MC38 cells were kindly provided by A. Sharpe from Dana Farber Cancer Institute. Cells were maintained in DMEM supplemented with 10% FBS and penicillin/streptomycin. SUM159, H838, SKMEL, and Colo cells were maintained in RPMI1640 supplemented with 10% FBS and penicillin/streptomycin. Cells were confirmed negative for mycoplasma contamination by PCR-based assay. […] Fluorescence as a measure of relative dye reduction was measured on an Envision plate reader (Perkin Elmer) with excitation at 544 nm and emission readings at 570 nm.
# For analysis of MHC Class I surface expression, cells were seeded into 12 well plates (125,000/well). […] Cytometric data were plotted and analyzed with FloJo.
# KPM lung tumors = assay: Lung tumor burden in hypermutant KPM mouse model of NSCLC; assay type: in vivo; conditions: KPM mice, 0.5 mg/kg/day in drinking water for 4 weeks
# Excerpt: A genetically engineered mouse model of non-small cell lung cancer (NSCLC) was used. Mice harboring a Cre-recombinase inducible oncogenic Kras, and a floxed p53 allele (KP) develop tumors following intratracheal administration of Cre recombinase. In addition, a hypermutant mouse model of NSCLC (KPM) was used in which mice have a floxed allele of the MutS homolog 2 (Msh2) gene, a critical component of DNA mismatch repair, in addition to the genetic modifications of the KP mouse model. These models enable the interrogation of Hsp90i strategies in a physiologically relevant NSCLC model with and without hypermutation.
# KP and KPM mice were infected intratracheally with Adenovirus expressing Cre recombinase from an SPC promoter at a titer of 2×10^8 plaque forming units per mouse to initiate tumor formation. 8 weeks following tumor initiation, the cohort was randomized and vehicle (control) or Hsp90i (NVP-HSP990) was administered in the drinking water at a dose of 0.5 mg/kg/day for 4 weeks prior to analysis at 12 weeks post tumor induction.
# Tumor burden was analyzed histologically on tumor sections stained with hemotoxylin and eosin (H&E) using standard protocols at the Koch Institute Histology Facility. Tumor burden was calculated by dividing the total area of tumor tissue over the total area of normal lung tissue present in each sample.
smiles,measurement,setting,value
COc1cccc(-c2cc(F)ccc2[C@H]2Cc3nc(N)nc(C)c3C(=O)N2)n1 [NVP-HSP990],effect on tumor growth,MC38 tumors,no effect on tumor growth
same,MHC-I surface expression on MC38 cells,MC38 cells; 60 nM for each drug,induced MHC-I
same,MHC Class I surface expression on MC38 cells,"MC38 cells; 15, 30, 60 nM, 72 hours, below the IC50 for cytotoxicity",stimulated MHC Class I surface expression
same,"MHC Class I expression on human tumor cell lines from breast, melanocytes and lung",[1],induced upregulation of MHC Class I expression
same,lung tumor burden versus control,KPM lung tumors,significantly reduced the lung tumor burden
